# Reference: patent publication US20240366644A1, “ANTI-INFLAMMATORY APPLICATION OF GINSENOSIDE RD” (priority 2022, published 2024)
# Assays:
# [1] = tested on: mice infected with COVID-19 Delta virus; assay: Lung histopathology of mice infected with COVID-19 Delta virus; format: in vivo, hACE2 transgenic C57BL/6 mice; conditions: number of mice with this degree (four per group); 5 mg/kg gavage once a day, five days
# [2] = tested on: mice with acute lung injury; assay: Inflammatory factors (ELISA) in lung tissue and alveolar lavage fluid of mice with LPS acute lung injury; format: in vivo, Balb/c mice; conditions: 5 mg/kg intraperitoneal 1 h before LPS; 24 h after modeling
# Experimental: Balb/c male mice, weighing 20-22 g, were randomly divided into five groups according to body weights, with eight mice in each group: a blank control group (propylene glycol-0.5% carboxymethylcellulose sodium), a model group (LPS, 15 mg/kg), a ginsenoside Rd low-dose group (10 mg/kg), a ginsenoside Rd high-dose group (20 mg/kg), and a Dexamethasone group (5 mg/kg). Mice in each group were intraperitoneally injected; after 1 h of administration, except for the blank control group, the mice in each group were intratracheally instilled with 20 μg of LPS for modeling; and the blank control group was intratracheally instilled with an equal volume of PBS.
# After 1 h of administration, a mouse ALI model was established; each mouse was intraperitoneally injected with sodium pentobarbital at 30 mg/kg, anesthetized and fixed on an operating table dorsally; skin preparation was carried out on the neck; the skin was incised to expose the trachea; 20 μg of LPS was instilled into the trachea using a microglass syringe; and then the mouse was gently rotated head up on the operating table, such that the instilled liquid was evenly distributed in the mouse lungs, and the skin incision was sutured.
# After 24 h of modeling, anesthetized mice were intraperitoneally injected with sodium pentobarbital at 30 mg/kg; lung tissues of the mice were taken and rinsed repeatedly in pre-cooled normal saline; the lung tissues were blood-removed, wiped with filter paper, weighed, and added with normal saline according to a ratio of 1:9 (W:V=1 g:9 ml); a tissue homogenate was prepared with a homogenization machine under an ice water bath; and a supernatant of mouse lung tissue homogenate was taken.
# The mouse was anesthetized, and the trachea was separated; the whole lung was lavaged with 0.5 ml of pre-cooled normal saline, stayed for 1 min, and slowly pumped back with a syringe, and this process was repeated three times; and BLAF was collected, and centrifuged for 15 min at 4° C. and 1600 rpm/min.
# In strict accordance with the operating instructions of an enzyme-linked immunosorbent assay kit (ELISA), the contents of TNF-α, IL-1β, IL-6 and IL-18 in the supernatant of mouse lung tissue homogenate and the BLAF supernatant were detected.
# [3] = tested on: COVID-19 Delta virus-infected mice; assay: IL-1β and MCP-1 expression (RT-qPCR) in lung homogenates of COVID-19 Delta virus-infected mice; format: in vivo, hACE2 transgenic C57BL/6 mice; conditions: mRNA, blank group 1.00; 5 mg/kg gavage; Day 5 of infection
# [4] = tested on: xylene-induced swelling of mouse ears; assay: Xylene-induced swelling of mouse ears; format: in vivo, Kunming mice
# Experimental: […] KM mice, weighing 18-22 g, were randomly grouped, with ten mice in each group. The groups include a model group, a positive control group (Indomethacin, 10 mg/kg), a ginsenoside Rd low-dose group (5 mg/kg), and a ginsenoside Rd high-dose group (10 mg/kg). After 30 min of gavage administration of mice (the model group was administrated with the equal volume of 0.5% sodium carboxymethylcellulose by gavage), 0.03 ml of xylene was evenly applied to both sides of the right ear of each mouse in each group to cause inflammations on both sides, and the left ear of the mouse was not applied as a control. After 4 h, the mouse was killed by dislocation of cervical vertebra, the two ears of the mouse were cut off along the auricle, round ear slices of the same size (a diameter of 6 mm) were taken at the same position of the left and right ears and weighed respectively, a mass difference of the two ear slices was used as an ear swelling degree, and a swelling inhibition rate was calculated.
# [5] = tested on: Chronic Obstructive Pulmonary Disease in Rats; assay: Lung pathomorphology of rats with chronic obstructive pulmonary disease; format: in vivo, SD rats; conditions: po, 2.5 mg/kg
# [6] = tested on: Chronic Obstructive Pulmonary Disease in Rats; assay: Serum TNF-α and IL-8 in rats with chronic obstructive pulmonary disease (LPS + smoking); format: in vivo, SD rats; conditions: 2.5 mg/kg gavage
# Experimental: After adaptive feeding (20-25° C., a humidity of 50-60%) for 1 week, the rats were randomly divided into a blank group, a model group, a positive control group, a ginsenoside Rd high-dose group, and a ginsenoside Rd low-dose group, with ten rats in each group.
# Model group: on the Day 1 and Day 14, each rat was intraperitoneally injected with 10% chloral hydrate (300 mg/kg) for anesthesia; the head was fixed in a low position; the glottis was exposed; lipopolysaccharide was quickly injected into the trachea; and the rat was kept upright, and swung left and right for 10-20 s, such that the lipopolysaccharide was evenly distributed in the two lungs. On the Days 2-13, and 15-28, the lungs were smoked in a closed organic glass box for 30 min every day, with 15 cigarettes per day.
# Positive control group: the animal was anesthetized, and intratracheally injected with lipopolysaccharide, wherein smoking conditions and time were the same as those of the model group; and after tracheal injection of lipopolysaccharide for two weeks, the animal was administrated with Simvastatin by gavage (2.5 mg/kg), and killed after six weeks, and serum was collected.
# In accordance with the instructions, the levels of TNF-α and IL-8 in the serum were detected by enzyme-linked immunosorbent assay. The data was expressed as x±s, p<0.05, which meant that it was statistically significant.
# [7] = 10 mg/kg gavage 30 min before xylene, 4 h after xylene
structure (smiles),measurement,setting,value
"C[C@@H]1C[C@H]2[C@@H]3CCC4=CC(=O)C=C[C@]4(C)[C@@]3(F)[C@@H](O)C[C@]2(C)[C@@]1(O)C(=O)CO [Dexamethasone, reference compound]",Interstitial pneumonia Mild,[1],3
same,Interstitial pneumonia Moderate,[1],1
same,Interstitial pneumonia Severe,[1],0
same,Pulmonary hemorrhage Mild,[1],3
same,Pulmonary hemorrhage Moderate,[1],1
same,Pulmonary hemorrhage Severe,[1],0
same,IL-1β in alveolar lavage fluid,[2],58.56 ± 16.24 ng/L
same,IL-1β in lung tissue,[2],48.76 ± 12.76 ng/L
same,IL-6 in alveolar lavage fluid,[2],36.89 ± 6.16 ng/L
same,IL-6 in lung tissue,[2],49.73 ± 16.08 ng/L
same,IL-18 in alveolar lavage fluid,[2],56.38 ± 9.40 ng/L
same,IL-18 in lung tissue,[2],49.06 ± 15.41 ng/L
same,TNF-α in alveolar lavage fluid,[2],222.58 ± 60.91 ng/L
same,TNF-α in lung tissue,[2],58.64 ± 10.65 ng/L
same,IL-1β expression level in lung homogenate,[3],9.26 ± 10.27
same,MCP-1 expression level in lung homogenate,[3],6.27 ± 8.20
"COc1ccc2c(c1)c(CC(=O)O)c(C)n2C(=O)c1ccc(Cl)cc1 [Indomethacin, reference compound]",Ear mass difference,[4]; [7],10.87 ± 0.53 mg
same,Swelling degree,[4]; [7],6.48 ± 1.89 (mg) (%)
same,inhibition at 10 mg/kg,"[4]; Mus musculus, po, ear swelling, 10 mg/kg gavage, read-out: Inhibition rate",40.3%
"CCC(C)(C)C(=O)O[C@H]1C[C@@H](C)C=C2C=C[C@H](C)[C@H](CC[C@@H]3C[C@@H](O)CC(=O)O3)[C@H]21 [Simvastatin, reference compound]",Epithelial cell necrosis Mild,[5],7
same,Epithelial cell necrosis Moderate,[5],3
same,Epithelial cell necrosis Severe,[5],0
same,Interstitial inflammatory cell infiltration Mild,[5],6
same,Interstitial inflammatory cell infiltration Moderate,[5],4
same,Interstitial inflammatory cell infiltration Severe,[5],0
same,IL-8 in serum,[6],22.65 ± 11.56
same,TNF-α in serum,[6],11.71 ± 13.27
